Test results as given in patent publication US5049550A, “Diadenosine 5', 5'"-p^1, p^4,-tetraphosphate analogs as antithrombotic agents” (Worcester Foundation for Experimental Biology, priority 1988, dated 1991).
pKi: −log10 of the molar value. Entries after “also recorded” stand apart in the source; their conditions may differ.

Assays:
[1] = tested on: aggregation of platelets induced by ADP; test: ADP-induced aggregation of platelets recovered from AP4 A-infused rabbits; type: in vivo, rabbit
Protocol: After preliminary trials, a standard AP4 A infusion protocol was established as follows: A dose of AP4 A at 50 mg/kg was reconstituted in 10 ml of normal saline and infused by pump at a uniform rate over two hours. Control rabbits received 10 ml of saline alone. The intracarotid cannula was inserted, and the re-establishment of blood flow timed at 15 minutes into the infusion. Upon the completion of infusion at 2 hours, the intracarotid tubing was removed, and its contents flushed out into a petri dish. The presence of a clot or of liquid blood contents was noted.
(§1) Rabbit carotid arterial blood was collected in 3.8% sodium citrate (9 volumes blood to 1 volume citrate). Platelet rich plasma (PRP) and platelet poor plasma (PPP) were prepared by centrifugation at 150 g and 1,000 g for 10 minutes respectively. Aggregation studies were performed in a Chrono-Log (Havertown, Pa.) aggregometer with ADP or collagen as aggregating agents. ADP (Sigma Chemical Co.) was used in a final concentration of 2×10^-5 M. Calf skin collagen (Sigma Chemical Co.) was used in a final concentration of 200 ug/ml.

[2] = tested on: rabbit platelet aggregation by ADP; test: ADP-induced aggregation of rabbit platelets; type: cell-based
Protocol: as §1
The effect of AP4 A on rabbit platelet aggregation by ADP and collagen was tested. […] The anti-aggregatory effect of AP4 A was detected at a concentration of 2×10^-4 M (tenfold that of ADP) and increased in a dose-response pattern with increasing concentrations (FIG. 1).

[3] = tested on: ADP-induced platelet aggregation; test: Kinetics of ADP-induced platelet aggregation (double-reciprocal plot); type: cell-based; settings: FIG. 6
Protocol: Changes in light transmission reflecting the velocity of ADP-induced platelet aggregability was determined using a platelet aggregometer. Born, G.V.P., Nature 184:927-929 (1962). […] The Y points on the X-intercept are altered by factors [formula] where I is the concentration of inhibitor, and Ki is a characteristic constant. Points on the X-intercept are given by the expression [formula] intercept when [I]=0. When [I] is known, the equation can be solved for Ki.

Nc1ncnc2c1ncn2[C@@H]1O[C@H](COP(=O)(O)OP(=O)(O)OP(=O)(O)OP(=O)(O)OC[C@H]2O[C@@H](n3cnc4c(N)ncnc43)[C@H](O)[C@@H]2O)[C@@H](O)[C@H]1O [AP4 A, diadenosine 5',5'"-p^1,p^4 -tetraphosphate]
aggregation of platelets induced by ADP after AP4 A infusion ([1]; 50 mg per kg over 2 hours, ADP 2×10^-5 M (FIG. 4)): diminished response to ADP-induced aggregation; also recorded: markedly blunted
inhibition of ADP-induced platelet aggregation on administration to a mammal ([1]; rabbit, in vivo): markedly inhibit ADP-induced platelet aggregation
minimal effective concentration ([2]; Oryctolagus cuniculus, Platelet, ADP 2×10^-5 M (tenfold that of ADP), read-out: concentration at which the anti-aggregatory effect was detected): 200 µM
effect of addition during ADP aggregation ([2]; added during aggregation, ADP 2×10^-5 M): blunted the secondary wave response to ADP and caused the dispersion of aggregated platelets
inhibition of ADP-induced aggregation ([2]; same dose as tested with collagen): almost complete inhibition
pKi ([3]; competitive inhibition of ADP-induced aggregation): 4.77
type / relative strength of inhibition ([3]; double reciprocal plot): competitive inhibition
